Key:
Assay in all cases: relative viability (nuclei count vs DMSO), 5 days (fraction); higher = more cells survive
Sulindac + Phenformin = compound: CC1=C(CC(=O)O)c2cc(F)ccc2/C1=C\c1ccc([S+](C)[O-])cc1 [Sulindac] + N=C(N)NC(=N)NCCc1ccccc1 [Phenformin] (partner 250 µM)
How it was run: (§1)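 Each reported value is a median over duplicate plates. It expresses relative viability: treated-well nuclei count divided by vehicle-well nuclei count. Lung cancer cell lines in 1536-well plates were dosed by pin tool a day after seeding, alone with one drug or with a fixed anchor-drug dose plus five library-drug doses (not always all listed) in √10 steps, and nuclei were counted after 5 days.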

Sulindac + Decitabine = compound: CC1=C(CC(=O)O)c2cc(F)ccc2/C1=C\c1ccc([S+](C)[O-])cc1 [Sulindac] + Nc1ncn([C@H]2C[C@H](O)[C@@H](CO)O2)c(=O)n1 [Decitabine] (partner 2 µM)
How it was run: as §1

[1] = compound: CN[C@@H]1C[C@H]2O[C@@](C)([C@@H]1OC)n1c3ccccc3c3c4c(c5c6ccccc6n2c5c31)C(=O)NC4 [Staurosporine] + Cc1nc(NC(=O)N2CCC[C@H]2C(N)=O)sc1-c1ccnc(C(C)(C)C(F)(F)F)c1 [Alpelisib] (partner 2 µM)
How it was run: as §1

[2] = compound: O=c1[nH]cc(F)c(=O)[nH]1 [5-Fluorouracil] + CS(=O)(=O)CCNCc1ccc(-c2ccc3ncnc(Nc4ccc(OCc5cccc(F)c5)c(Cl)c4)c3c2)o1 [Lapatinib] (partner 2 µM)
How it was run: as §1

Cell Line	relative viability (Sulindac + Phenformin; first compound 0.08 µM)	relative viability (Sulindac + Phenformin; first compound 0.253 µM)	relative viability (Sulindac + Phenformin; first compound 0.8 µM)	relative viability (Sulindac + Phenformin; first compound 2.53 µM)	relative viability (Sulindac + Phenformin; first compound 8 µM)	relative viability (Sulindac + Decitabine; first compound 0.08 µM)	relative viability (Sulindac + Decitabine; first compound 0.253 µM)	relative viability (Sulindac + Decitabine; first compound 0.8 µM)	relative viability (Sulindac + Decitabine; first compound 2.53 µM)	relative viability (Sulindac + Decitabine; first compound 8 µM)	relative viability ([1]; first compound 0.005 µM)	relative viability ([1]; first compound 0.01581 µM)	relative viability ([1]; first compound 0.05 µM)	relative viability ([1]; first compound 0.1581 µM)	relative viability ([1]; first compound 0.5 µM)	relative viability ([2]; first compound 0.02 µM)	relative viability ([2]; first compound 0.2 µM)	relative viability ([2]; first compound 0.6325 µM)	relative viability ([2]; first compound 2 µM)
SK-LU-1	0.498	0.567	0.444	0.444	0.668	0.691	0.642	0.53	0.647	0.673	0.264	0.188	0.18	0.158	0.122	0.904	0.956	0.846	0.704
NCI-H1915	0.445	0.389	–	0.378	0.382	0.229	0.268	0.266	0.261	0.27	1.11	–	0.587	0.445	0.357	0.908	0.999	0.97	0.724
NCI-H650	0.448	0.466	0.389	0.471	0.502	0.33	0.325	0.341	0.284	0.339	0.517	0.318	0.306	0.288	0.178	0.555	0.681	0.524	0.455
NCI-H441	0.992	1.03	0.456	0.808	0.958	0.255	0.232	0.252	0.245	0.264	0.615	0.328	0.316	0.218	0.229	–	–	–	–
COR-L 105	0.456	0.477	0.417	0.564	0.558	0.648	0.698	0.621	0.538	0.769	0.59	0.388	0.236	0.235	0.197	0.362	0.409	0.367	0.381
NCI-H2009	0.549	0.521	0.45	0.53	0.538	0.455	0.397	0.371	0.362	0.359	0.864	0.276	0.267	0.173	0.141	0.941	0.919	0.764	0.812
NCI-H1437	0.251	0.321	0.197	0.301	0.373	0.667	0.619	0.547	0.591	0.568	0.918	0.663	0.487	0.413	0.242	–	0.231	0.142	0.142
PC-3 [JPC-3]	0.475	0.494	0.657	0.458	0.548	0.777	0.791	0.838	0.77	0.855	1.05	–	0.638	0.508	0.39	0.479	0.48	0.485	0.476
NCI-H1703	–	–	–	–	–	–	–	–	–	–	0.219	0.167	0.142	0.139	0.102	1.23	1.44	1.09	0.556

From the supplement of paper PMC10307832
